Converted amounts (≈) assume the structure as drawn.

Series [1] concerns Pasteurella piscicida. Nature of the series: microbe, parasite or virus in culture. The class given is cell-based. The settings on record: Photobacterium damselae.
Series [2] has as its system Xanthomonas campestris PV citri.
The nature of series [3]: Storage life of kamaboko, rot-proof property (Test Example 4). Particulars: 0.2%, pH 6.58, 30° C.
Procedure: Fish paste was prepared by adding NaCl (2.5%), chemical seasoning (0.8%), starch (5%) and ice water (10%) based on frozen surimi of walleye pollack (4 kg) and cutting by a silent cutter for 10 minutes. Predetermined amount of bacterial substance UFC-N11 based on the resulting fish paste (2 kg) was added and completely mixed in a small mixer for 5 minutes. About 100 g fish paste were enclosed with polyvinylidene chloride film (spread width:45 mm), boiled at 90° C. for 30 minutes, quenched, left overnight and then tested for rot-proof property.
The test was conducted as follows. As the complete package products, 10 pieces/group of kamaboko processed by casing method samples and, as the simplified package products, 10 pieces/group prepared by peeling off the casing under sterilized condition, cutting into 2 round slices (thickness: 10 mm) by a sterilized knife and placing in a sterilized plastic Petri dish. were placed in a thermostatic chamber at 30° C. and evaluated by macroscopically observation. The evaluation uses five-level scale shown below. The period until the average evaluation value of 1 is attained is defined as the storage life.

Turning to `O=C(O)c1ccc(/C=C/c2ccc([N+](=O)[O-])o2)cc1` [Nifurstyrenic acid], the MIC in series [1] (strain AT-1) amounted to 1.25 µg/mL (≈ 4.82 µM); in series [1] (strain AT-17), 0.31 µg/mL (≈ 1.2 µM); in series [1] (strain KGP86041), 2.5 µg/mL (≈ 9.64 µM); in series [1] (strain MEP35) it was 2.5 µg/mL (≈ 9.64 µM); in series [1] (strain MEP151), 0.31 µg/mL (≈ 1.2 µM); in series [1] (strain MS86115), 0.31 µg/mL (≈ 1.2 µM). The MIC in series [1] (strain MS86169) came out at 2.5 µg/mL (≈ 9.64 µM); in series [1] (strain SP6275), 0.63 µg/mL (≈ 2.43 µM); in series [1] (strain SP6291), 0.16 µg/mL (≈ 0.617 µM); in series [1] (strain WP96), 0.31 µg/mL (≈ 1.2 µM).

Consider `CCn1cc(C(=O)O)c(=O)c2cc3c(cc21)OCO3` [Oxolinic acid], for which the MIC in series [1] (strain AT-1) was determined as 1.25 µg/mL (≈ 4.79 µM); in series [1] (strain AT-17), 1.25 µg/mL (≈ 4.79 µM); in series [1] (strain KGP86041) it was 0.078 µg/mL (≈ 0.299 µM); in series [1] (strain MEP35), 1.25 µg/mL (≈ 4.79 µM); in series [1] (strain MEP151), 1.25 µg/mL (≈ 4.79 µM); in series [1] (strain MS86115), 1.25 µg/mL (≈ 4.79 µM). Further, the MIC in series [1] (strain MS86169) is 0.078 µg/mL (≈ 0.299 µM); in series [1] (strain SP6275), 1.25 µg/mL (≈ 4.79 µM); in series [1] (strain SP6291) it was 0.039 µg/mL (≈ 0.149 µM); in series [1] (strain WP96), 0.039 µg/mL (≈ 0.149 µM).

On to `CC1(C)S[C@@H]2[C@H](NC(=O)[C@H](N)c3ccccc3)C(=O)N2[C@H]1C(=O)O` [Ampicillin], for which the MIC in series [1] (strain AT-1) was over 10 µg/mL; in series [1] (strain AT-17), over 10 µg/mL; in series [1] (strain KGP86041), 0.039 µg/mL (≈ 0.112 µM); in series [1] (strain MEP35), 0.039 µg/mL (≈ 0.112 µM); in series [1] (strain MEP151) it was over 10 µg/mL; in series [1] (strain MS86115) it was 0.039 µg/mL (≈ 0.112 µM). In addition, the MIC in series [1] (strain MS86169) is over 10 µg/mL; in series [1] (strain SP6275), 0.039 µg/mL (≈ 0.112 µM); in series [1] (strain SP6291), over 10 µg/mL; in series [1] (strain WP96), 0.078 µg/mL (≈ 0.223 µM).

As for `[H]/N=C(/N)N[C@H]1[C@H](O)[C@@H](O)[C@H](O[C@@H]2O[C@@H](C)[C@](O)(C=O)[C@H]2O[C@@H]2O[C@@H](CO)[C@H](O)[C@@H](O)[C@@H]2NC)[C@@H](N/C(N)=N\[H])[C@@H]1O` [Streptomycin, reference compound], in series [2] (Streptomycin, concentration printed as 0 ppm, 14 days), the Prevention came out at 30.3%. Further, in series [2] (in vivo), the Damage result is “nil”.

Take `C/C=C/C=C/C(=O)O` [Sorbic acid, reference compound]: in series [3], the “Storage life, Complete package” value amounted to 12.0 days and the “Storage life, simplified package” value is 7.0 days.

For the origin of these results see patent US4868203A, “Bacterial substance and pharmaceutical composition thereof” (Kabushikikaisha Ueno Seiyaku Oyo Kenkyujo, priority 1986, dated 1989).
